In order of rising logP:
1. CC1CCC2CC(=O)N(CC(=O)O)C3OC4(C)CCC1C23OO4 (stereo not given)  1.75
2. CC1CCC2CC(=O)N(C)C3OC4(C)CCC1C23OO4 (stereo not given)  2.76
3. C[C@@H]1CC[C@H]2[C@@H](C)C(=O)O[C@@H]3O[C@@]4(C)CC[C@@H]1[C@]32OO4  2.9
4. CCCN1C(=O)CC2CCC(C)C3CCC4(C)OOC23C1O4 (stereo not given)  3.4
5. CO[C@H]1O[C@@H]2O[C@@]3(C)CC[C@H]4[C@H](C)CC[C@@H]([C@H]1C)[C@@]24OO3  3.53
6. CC(C)CN1C(=O)CC2CCC(C)C3CCC4(C)OOC23C1O4 (stereo not given)  3.66
7. CC(C)CCN1C(=O)CC2CCC(C)C3CCC4(C)OOC23C1O4 (stereo not given)  4.16
8. CCCCCN1C(=O)CC2CCC(C)C3CCC4(C)OOC23C1O4 (stereo not given)  4.24
9. CC1CCC2CC(=O)N(Cc3ccc(Cl)cc3)C3OC4(C)CCC1C23OO4 (stereo not given)  4.32
10. CC1CCC2CC(=O)N(CCCc3ccccc3)C3OC4(C)CCC1C23OO4 (stereo not given)  4.39

From the OPERA property sets (Mansouri et al. 2018)
